Experiments:
[1] = test system: Hela (human cervical cancer); test: MTT cytotoxicity assay, Hela; format: cell-based; conditions: 72 h, maximal tested concentration 20.0 μM
Protocol: (§1) The cytotoxicity of ligustrazine-triterpenes derivatives was evaluated on five tumor cell lines (Bel-7402, HepG2, HT-29, Hela, and MCF-7) using the standard MTT assay. In the study, the antineoplastic drug cisplatin (DDP) was selected as the positive control. The MDCK cell line was used to test the toxicity of the ligustrazine-triterpenes derivatives and DDP.
(§2) The cell lines Bel-7402 (human hepatocellular carcinoma), HepG2 (human hepatocellular carcinoma), HT-29 (human colon carcinoma), Hela (human cervical cancer), MCF-7 (human breast cancer) were included in this study. All these cell lines were provided by the Chinese Academy of Medical Sciences & Peking Union Medical College. Cultures were maintained as monolayers in RPMI 1640 supplemented with 10% (v/v) heat inactivated fetal bovine serum and 1% (v/v) enicillin/streptomycin (Thermo Technologies, New York, NY, USA) at 37 °C in a humidified atmosphere with 5% CO2. The ligustrazine derivatives under study were dissolved in DMSO (Sigma, St. Louis, MO, USA) and added at required concentrations to the cell culture. Cells incubated without the preparations served as the control.
(§3) The cytotoxicity of the compounds was evaluated on five cancer cell lines (Bel-7402, HepG2, HT-29, Hela, MCF-7) by the standard MTT assay. In short, exponentially growing cells were seeded into 96-well plates at a density 10^4 cells/mL. The plates were incubated at 37 °C in a humidified 5% CO2 atmosphere. Cells were allowed to adhere to the surface for 24 h and then treated with serial dilutions of the compounds for 72 h. Later, aliquots of [3-(4,5-dimethylthiazol-2-yl)-2,5-diphenyltetrazolium bromide] (MTT) solution (20 μL, 5 mg/mL) were added to each well and the incubation was continued for an additional 4 h. Then the supernatant medium was thrown away. The dark blue formazan crystals formed within the healthy cells were solubilized with DMSO (150 μL) and the absorbance was measured in a plate reader (BIORAD 550 spectrophotometer, Bio-rad Life Science Development Ltd., Beijing, China) at 490 nm. Wells containing no drugs were used as control group. The IC50 values were defined as the concentration of compounds that produced a 50% reduction of surviving cells and calculated using Logit-method. Tumor cell growth inhibitory rate was calculated in the following Equation (1): % inhibition = (1 − Sample group OD/Control group OD) × 100% (1)

[2] = test system: Bel-7402 (human hepatocellular carcinoma); test: MTT cytotoxicity assay, Bel-7402; format: cell-based; conditions: maximal tested concentration 20.0 μM
Protocol: as §1, §2, §3

[3] = test system: MCF-7 (human breast cancer); test: MTT cytotoxicity assay, MCF-7; format: cell-based; conditions: maximal tested concentration 20.0 μM
Protocol: as §1, §2, §3

[4] = test system: HT-29 (human colon carcinoma); test: MTT cytotoxicity assay, HT-29; format: cell-based; conditions: maximal tested concentration 20.0 μM
Protocol: as §1, §2, §3

[5] = test system: HepG2 (human hepatocellular carcinoma); test: MTT cytotoxicity assay, HepG2; format: cell-based; conditions: 72 h, maximal tested concentration 20.0 μM
Protocol: as §1, §2, §3

[6] = test system: Madin-Darby canine kidney cell line (MDCK); test: MTT cytotoxicity (nephrotoxicity/selectivity) assay, MDCK; format: cell-based; conditions: maximal tested concentration 20.0 μM, toxicity to MDCK kidney cells

Row | melting point [°C] | SMILES | IC50 ([1]; Homo sapiens, HeLa) [µM] | IC50 ([2]; Homo sapiens, Bel-7402, 72 h) [µM] | IC50 ([3]; Homo sapiens, MCF7, 72 h) [µM] | IC50 ([4]; Homo sapiens, HT-29, 72 h) [µM] | IC50 ([5]; Homo sapiens, HepG2, 72 h) [µM] | IC50 ([6]; Canis lupus familiaris) [µM] | IC50 [1] [µM] | IC50 ([2]; 72 h) [µM] | IC50 ([3]; 72 h) [µM] | IC50 ([4]; 72 h) [µM] | IC50 [5] [µM] | IC50 [6] [µM]
1 | – | CC1(C)CC[C@]2(C(=O)O)CC[C@]3(C)C(=CC[C@@H]4[C@@]5(C)CC[C@H](O)C(C)(C)[C@@H]5CC[C@]43C)[C@@H]2C1 [OA, oleanolic acid, reference compound] | > 20 | > 20 | > 20 | > 20 | > 20 | – | – | – | – | – | – | –
2 | 193 to 193.7 | Cc1nc(C)c(COC(=O)[C@]23CCC(C)(C)CC2C2=CCC4[C@@]5(C)CC[C@H](OC(=O)c6nc(C)c(C)nc6C)C(C)(C)C5CC[C@@]4(C)[C@]2(C)CC3)nc1C (stereo partly drawn) [Compound 1b, 3β-Hydroxyolea-(3,5,6-trimethylpyrazin-2-carbonyl)-12-en-28-oic acid-3,5,6-trimethylpyrazin-2-methyl ester] | > 20 | > 20 | 10.6 | > 20 | 12.1 | > 20 | – | – | – | – | – | –
3 | – | Cc1nc(C)c(COC(=O)[C@]23CCC(C)(C)CC2C2=CCC4[C@@]5(C)CC[C@H](O)C(C)(C)C5CC[C@@]4(C)[C@]2(C)CC3)nc1C (stereo partly drawn) [Compound 1a, 3β-Hydroxyolea-12-en-28-oic acid-3,5,6-trimethylpyrazin-2-methyl ester] | 14.1 | 10.2 | 15.2 | 13.2 | 14.8 | > 20 | – | – | – | – | – | –
4 | 168.2 to 168.9 | Cc1nc(C)c(COC(=O)[C@]23CC[C@@H](C)[C@H](C)C2C2=CCC4[C@@]5(C)CC[C@H](OC(=O)c6nc(C)c(C)nc6C)C(C)(C)C5CC[C@@]4(C)[C@]2(C)CC3)nc1C (stereo partly drawn) [Compound 2b, 3β-Hydroxyurs-(3,5,6-trimethylpyrazin-2-carbonyl)-12-en-28-oic acid-3,5,6-trimethylpyrazin-2-methyl ester] | > 20 | > 20 | > 20 | > 20 | > 20 | – | – | – | – | – | – | –
5 | – | C=C(C)[C@@H]1CC[C@]2(C(=O)O)CC[C@]3(C)[C@H](CC[C@@H]4[C@@]5(C)CC[C@H](O)C(C)(C)[C@@H]5CC[C@]43C)[C@@H]12 [BA, betulinic acid, reference compound] | > 20 | > 20 | > 20 | > 20 | > 20 | – | – | – | – | – | – | –
6 | 289.7 to 290.5 | Cc1nc(C)c(C(=O)OC2CCC3(C)C(CCC4(C)C3CC=C3C5CC(C)(C)CCC5(C(=O)O)CCC34C)C2(C)C)nc1C (stereo not drawn) [Compound 1d, 3β-Hydroxyolea-(3,5,6-trimethylpyrazin-2-carbonyl)-12-en-28-oic acid] | 4.37 | 9.28 | 5.69 | 8.43 | 7.94 | 16.4 | – | – | – | – | – | –
7 | 218.5 to 219.3 | Cc1nc(C)c(C(=O)OC2CCC3(C)C(CCC4(C)C3CC=C3C5C(C)C(C)CCC5(C(=O)OCc5ccccc5)CCC34C)C2(C)C)nc1C (stereo not drawn) [Compound 2c, 3β-Hydroxyurs-(3,5,6-trimethylpyrazin-2-carbonyl)-12-en-28-oic acid-benzyl ester] | > 20 | > 20 | > 20 | > 20 | > 20 | – | – | – | – | – | – | –
8 | – | Cc1nc(C)c(COC(=O)[C@@]2(C)CC[C@]3(C)CC[C@]4(C)C(=CC(=O)C5[C@@]6(C)CC[C@H](O)C(C)(C)C6CC[C@]54C)C3C2)nc1C (stereo partly shown) [Compound 3a, 3-Hydroxy-11-oxoolean-12-en-30-oic acid-3,5,6-trimethylpyrazin-2-methyl ester] | 11.2 | > 20 | > 20 | 19.9 | > 20 | > 20 | – | – | – | – | – | –
9 | – | C[C@H]1[C@H](C)CC[C@]2(C(=O)O)CC[C@]3(C)C(=CC[C@@H]4[C@@]5(C)CC[C@H](O)C(C)(C)[C@@H]5CC[C@]43C)[C@H]12 [UA, ursolic acid, reference compound] | > 20 | > 20 | > 20 | > 20 | > 20 | – | – | – | – | – | – | –
10 | 305.9 to 306.6 | Cc1nc(C)c(C(=O)OC2CCC3(C)C(CCC4(C)C3CC=C3C5C(C)C(C)CCC5(C(=O)O)CCC34C)C2(C)C)nc1C (stereo not drawn) [Compound 2d, 3β-Hydroxyurs-(3,5,6-trimethylpyrazin-2-carbonyl)-12-en-28-oic acid] | 9.66 | 10.1 | 9.49 | 9.7 | > 20 | > 20 | – | – | – | – | – | –
11 | 194.2 to 194.9 | Cc1nc(C)c(C(=O)OC2CCC3(C)C(CCC4(C)C3CC=C3C5CC(C)(C)CCC5(C(=O)OCc5ccccc5)CCC34C)C2(C)C)nc1C (stereo not drawn) [Compound 1c, 3β-Hydroxyolea-(3,5,6-trimethylpyrazin-2-carbonyl)-12-en-28-oic acid-benzyl ester] | > 20 | > 20 | > 20 | > 20 | > 20 | – | – | – | – | – | – | –
12 | 125.9 to 126.7 | Cc1nc(C)c(COC(=O)[C@]23CC[C@@H](C)[C@H](C)C2C2=CCC4[C@@]5(C)CC[C@H](O)C(C)(C)C5CC[C@@]4(C)[C@]2(C)CC3)nc1C (stereo partly drawn) [Compound 2a, 3β-Hydroxyurs-12-en-28-oic acid-3,5,6-trimethylpyrazin-2-methyl ester] | 20 | 8.01 | > 20 | 17.6 | > 20 | > 20 | – | – | – | – | – | –
13 | – | Cc1nc(C)c(C)nc1C [TMP, ligustrazine] | > 20 | > 20 | > 20 | > 20 | > 20 | – | – | – | – | – | – | –
14 | – | CC1(C)[C@@H](O)CC[C@]2(C)[C@H]3C(=O)C=C4[C@@H]5C[C@@](C)(C(=O)O)CC[C@]5(C)CC[C@@]4(C)[C@]3(C)CC[C@@H]12 [GA, glycyrrhetic acid, reference compound] | – | – | – | – | – | – | > 20 | > 20 | > 20 | > 20 | > 20 | –
15 | – | N.N.[Cl][Pt][Cl] [DDP, cisplatin, reference compound] | – | – | – | – | – | – | 6.22 | 5.91 | 5.17 | 5.28 | 4.57 | 14.6

Row | SMILES | melting point [°C] | IC50 ([1]; Homo sapiens, HeLa) [µM] | IC50 ([2]; Homo sapiens, Bel-7402, 72 h) [µM] | IC50 ([3]; Homo sapiens, MCF7, 72 h) [µM] | IC50 ([4]; Homo sapiens, HT-29, 72 h) [µM] | IC50 ([5]; Homo sapiens, HepG2, 72 h) [µM] | IC50 ([6]; Canis lupus familiaris) [µM] | IC50 [1] [µM] | IC50 ([2]; 72 h) [µM] | IC50 ([3]; 72 h) [µM] | IC50 ([4]; 72 h) [µM] | IC50 [5] [µM] | IC50 [6] [µM]
16 | C=C(C)C1CCC2(C(=O)O)CCC3(C)C(CCC4C5(C)CCC(OC(=O)c6nc(C)c(C)nc6C)C(C)(C)C5CCC43C)C12 (stereo not drawn) [Compound 4d, 3β-Hydroxy-(3,5,6-trimethylpyrazin-2-carbonyl)-lup-20(29)-ene-28-oic acid] | 279.5 to 280.3 | 12.2 | 13.3 | 6.22 | 8.38 | 7.42 | > 20 | – | – | – | – | – | –
17 | C=C(C)[C@@H]1CC[C@]2(C(=O)OCc3nc(C)c(C)nc3C)CC[C@]3(C)C(CCC4[C@@]5(C)CC[C@H](OC(=O)c6nc(C)c(C)nc6C)C(C)(C)C5CC[C@]43C)C12 (stereo partly drawn) [Compound 4b, 3β-Hydroxy-(3,5,6-trimethylpyrazin-2-carbonyl)-lup-20(29)-ene-28-oic acid-3,5,6-trimethylpyrazin-2-methyl ester] | 142.1 to 142.9 | > 20 | > 20 | 12.9 | > 20 | 13.2 | > 20 | – | – | – | – | – | –
18 | C=C(C)C1CCC2(C(=O)OCc3ccccc3)CCC3(C)C(CCC4C5(C)CCC(OC(=O)c6nc(C)c(C)nc6C)C(C)(C)C5CCC43C)C12 (stereo not drawn) [Compound 4c, 3β-Hydroxy-(3,5,6-trimethylpyrazin-2-carbonyl)-lup-20(29)-ene-28-oic acid-benzyl ester] | 162.1 to 162.8 | > 20 | > 20 | > 20 | > 20 | > 20 | – | – | – | – | – | – | –
